Experimental data from patent US20050113283A1, “Methods of treating conditions associated with an EDG-4 receptor” (priority 2002, published 2005).

Columns and labels:
[1] = Calcium mobilization assay, Null; assay type: cell-based; conditions: agonist
Description: (§1) LPA receptors such as Edg-4, couple to calcium effector pathways, and result in increases in intracellular calcium following receptor activation (An et al., Molecular Pharmacology, 54:881-888, 1998, incorporated herein by reference). This biological response lends itself to a very efficient, high-throughput screen using a Fluorescence Imaging Plate Reader (FLIPR; Molecular Devices, Sunnyvale, Calif.). The FLIPR system is a real-time, cell-based assay system with continuous fluorescence detection using a cooled CCD camera. The FLIPR system was used to developing an Edg-4 receptor screen. Rat hepatoma cells stably expressing Edg-4 receptor were plated on 384-well plates and loaded with a calcium dye loading kit (Molecular Devices, Sunnyvale, Calif.) for 1 hour at room temperature. Cells were then placed on the FLIPR^354 (Molecular Devices, Sunnyvale, Calif.) and excited by an argon laser at 488 nm. The data for the entire 384-well plate was updated every second. An integrated robotic pipettor allowed for simultaneous compound addition into each individual well in the plate.

Edg-5 = molecular target: T1, Edg-5 (Homo sapiens, UniProt O95136); experiment: Calcium mobilization assay (FLIPR), HTC cells expressing Edg 5; assay type: cell-based; conditions: agonist
T1 construct: expressed in transfected cells; host or cells: HTC rat hepatoma cells (from the earlier reading)
T1 sequence (O95136 whole entry): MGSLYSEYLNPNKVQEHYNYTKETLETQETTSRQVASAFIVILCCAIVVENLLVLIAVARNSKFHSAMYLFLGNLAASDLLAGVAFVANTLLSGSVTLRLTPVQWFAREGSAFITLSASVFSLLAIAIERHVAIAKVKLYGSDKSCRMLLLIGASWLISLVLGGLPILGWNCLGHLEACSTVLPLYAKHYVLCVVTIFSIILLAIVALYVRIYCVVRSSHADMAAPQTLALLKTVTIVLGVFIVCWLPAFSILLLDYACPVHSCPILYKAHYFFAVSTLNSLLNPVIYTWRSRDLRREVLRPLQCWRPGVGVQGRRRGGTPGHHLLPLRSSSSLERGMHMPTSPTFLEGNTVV

Edg-7 = molecular target: T2, Edg-7 (Homo sapiens, UniProt Q9UBY5); experiment: Calcium mobilization assay (FLIPR), HTC cells expressing Edg 7; assay type: cell-based
T2 construct: expressed in transfected cells; host or cells: HTC rat hepatoma cells (from the earlier reading)
T2 sequence (Q9UBY5 1-353): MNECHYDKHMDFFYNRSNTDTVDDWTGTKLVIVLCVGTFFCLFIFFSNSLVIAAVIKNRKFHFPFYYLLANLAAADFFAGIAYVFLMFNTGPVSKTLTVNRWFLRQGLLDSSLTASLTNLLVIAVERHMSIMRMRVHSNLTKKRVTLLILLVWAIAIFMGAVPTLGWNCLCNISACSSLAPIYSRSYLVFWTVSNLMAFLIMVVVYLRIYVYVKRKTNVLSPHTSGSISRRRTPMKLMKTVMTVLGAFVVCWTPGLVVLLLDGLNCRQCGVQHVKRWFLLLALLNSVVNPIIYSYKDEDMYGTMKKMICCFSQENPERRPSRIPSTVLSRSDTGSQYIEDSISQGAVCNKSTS

Edg-3 = molecular target: T3, Edg-3 (Homo sapiens, UniProt Q99500); experiment: Calcium mobilization assay (FLIPR), HTC cells expressing Edg 3; assay type: cell-based; conditions: agonist
T3 construct: expressed in transfected cells; host or cells: HTC rat hepatoma cells (from the earlier reading)
T3 sequence (Q99500 whole entry): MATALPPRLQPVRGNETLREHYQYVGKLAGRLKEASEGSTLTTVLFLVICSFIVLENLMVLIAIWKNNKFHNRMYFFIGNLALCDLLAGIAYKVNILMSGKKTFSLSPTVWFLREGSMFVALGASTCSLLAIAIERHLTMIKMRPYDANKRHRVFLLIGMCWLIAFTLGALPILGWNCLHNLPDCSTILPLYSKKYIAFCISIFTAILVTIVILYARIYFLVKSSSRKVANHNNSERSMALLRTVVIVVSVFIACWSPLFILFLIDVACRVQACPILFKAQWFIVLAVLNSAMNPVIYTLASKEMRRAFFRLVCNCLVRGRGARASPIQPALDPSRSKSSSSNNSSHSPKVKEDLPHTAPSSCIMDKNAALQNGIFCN

[2] = test system: CaOV3 human ovarian cancer cells; experiment: Calcium response in CaOV3 cells; assay type: cell-based; conditions: CaOV3, naturally express human Edg-4, FIG. 16
human Edg-4 receptor [3] = experiment: Calcium mobilization assay (FLIPR), HTC rat hepatoma cells transfected with human Edg-4; assay type: cell-based; conditions: agonists; Edg-4 relative to other Edg receptors
Description: as §1

human Edg-4 receptor [4] = molecular target: T4, human Edg-4 receptor (Homo sapiens, UniProt Q9HBW0); experiment: as above; assay type: cell-based
T4 construct: IC50 Edg-4; other: agonist, calcium mobilization; potency relative to compound 101; calcium response (agonist)
T4 sequence (Q9HBW0 1-340 limits assumed): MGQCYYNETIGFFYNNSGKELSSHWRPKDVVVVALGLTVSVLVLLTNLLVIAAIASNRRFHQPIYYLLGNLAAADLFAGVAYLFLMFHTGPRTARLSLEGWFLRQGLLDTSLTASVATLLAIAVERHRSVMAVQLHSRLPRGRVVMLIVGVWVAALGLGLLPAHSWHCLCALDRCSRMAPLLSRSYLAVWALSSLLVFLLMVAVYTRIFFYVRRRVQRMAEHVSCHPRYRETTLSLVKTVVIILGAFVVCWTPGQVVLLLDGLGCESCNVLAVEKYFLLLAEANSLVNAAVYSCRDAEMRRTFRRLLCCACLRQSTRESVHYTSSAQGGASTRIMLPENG
Description: as §1

Edg-1 = molecular target: T5, Edg-1 (Homo sapiens, UniProt P21453); experiment: Calcium mobilization assay (FLIPR), HTC cells expressing Edg 1; assay type: cell-based; conditions: agonist
T5 construct: expressed in transfected cells; host or cells: HTC rat hepatoma cells (from the earlier reading)
T5 sequence (P21453 whole entry): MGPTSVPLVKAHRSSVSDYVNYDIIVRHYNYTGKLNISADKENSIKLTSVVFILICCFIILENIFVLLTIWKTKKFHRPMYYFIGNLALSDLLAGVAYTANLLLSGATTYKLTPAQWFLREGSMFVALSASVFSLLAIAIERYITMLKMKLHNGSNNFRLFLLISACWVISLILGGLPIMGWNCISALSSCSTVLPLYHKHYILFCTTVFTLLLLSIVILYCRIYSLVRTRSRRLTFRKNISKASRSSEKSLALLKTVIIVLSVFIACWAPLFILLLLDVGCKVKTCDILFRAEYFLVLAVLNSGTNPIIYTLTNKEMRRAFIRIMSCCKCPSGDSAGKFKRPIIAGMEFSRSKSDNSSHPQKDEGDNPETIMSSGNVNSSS

Edg-6 = molecular target: T6, Edg-6 (Homo sapiens, UniProt O95977); experiment: Calcium mobilization assay (FLIPR), HTC cells expressing Edg 6; assay type: cell-based; conditions: agonist
T6 construct: expressed in transfected cells; host or cells: HTC rat hepatoma cells (from the earlier reading)
T6 sequence (O95977 1-384): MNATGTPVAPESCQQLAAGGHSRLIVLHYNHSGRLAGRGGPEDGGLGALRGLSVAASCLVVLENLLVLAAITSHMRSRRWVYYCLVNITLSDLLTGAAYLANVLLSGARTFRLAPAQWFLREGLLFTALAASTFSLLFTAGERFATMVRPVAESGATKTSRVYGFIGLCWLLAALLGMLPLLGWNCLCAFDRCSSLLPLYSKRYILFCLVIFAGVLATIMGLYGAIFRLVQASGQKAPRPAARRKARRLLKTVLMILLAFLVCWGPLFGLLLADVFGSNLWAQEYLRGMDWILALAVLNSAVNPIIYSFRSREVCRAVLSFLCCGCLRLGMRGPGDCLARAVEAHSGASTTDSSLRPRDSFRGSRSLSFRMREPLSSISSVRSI

Edg-8 = molecular target: T7, Edg-8 (Homo sapiens, UniProt Q9H228); experiment: Calcium mobilization assay (FLIPR), HTC cells expressing Edg 8; assay type: cell-based; conditions: agonist
T7 construct: expressed in transfected cells; host or cells: HTC rat hepatoma cells (from the earlier reading)
T7 sequence (Q9H228 whole entry): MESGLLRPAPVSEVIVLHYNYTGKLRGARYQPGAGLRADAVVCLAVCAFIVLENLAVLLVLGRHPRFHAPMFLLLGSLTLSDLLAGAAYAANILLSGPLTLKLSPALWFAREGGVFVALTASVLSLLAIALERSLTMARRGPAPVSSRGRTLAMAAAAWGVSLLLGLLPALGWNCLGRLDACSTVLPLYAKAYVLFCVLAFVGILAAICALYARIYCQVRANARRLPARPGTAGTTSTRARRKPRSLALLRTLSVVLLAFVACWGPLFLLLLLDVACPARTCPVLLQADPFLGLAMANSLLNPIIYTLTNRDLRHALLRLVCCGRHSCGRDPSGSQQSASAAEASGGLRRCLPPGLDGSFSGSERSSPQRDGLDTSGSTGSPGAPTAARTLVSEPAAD

Edg-2 = molecular target: T8, Edg-2 (Homo sapiens, UniProt Q92633); experiment: Calcium mobilization assay (FLIPR), HTC cells expressing Edg 2; assay type: cell-based; conditions: agonist
T8 construct: expressed in transfected cells; host or cells: HTC rat hepatoma cells (from the earlier reading)
T8 sequence (Q92633 whole entry): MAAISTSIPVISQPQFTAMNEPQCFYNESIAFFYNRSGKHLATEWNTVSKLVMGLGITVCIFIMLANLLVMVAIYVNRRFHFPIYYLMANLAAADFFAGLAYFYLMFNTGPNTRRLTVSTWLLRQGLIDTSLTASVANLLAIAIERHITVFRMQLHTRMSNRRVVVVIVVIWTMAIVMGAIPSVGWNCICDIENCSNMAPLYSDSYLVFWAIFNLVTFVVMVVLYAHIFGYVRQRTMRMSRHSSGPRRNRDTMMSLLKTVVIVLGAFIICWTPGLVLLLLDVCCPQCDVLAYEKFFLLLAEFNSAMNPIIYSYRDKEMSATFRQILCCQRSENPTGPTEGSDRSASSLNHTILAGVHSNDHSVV

[5] = test system: human ovarian tumor growth within the chamber; experiment: In vivo Z-chamber study; set-up: species or system rat; conditions: rats, 5 mg/kg every other day, harvested day 16, FIG. 14
Experimental: The Z-chamber assay is a fibrin-based in vivo assay, wherein fibrin and thrombin are added through a port in a two-sided chamber sealed by a nylon mesh. The chamber is implanted in the subcutaneous space of an animal and harvested for evaluation. Fibrin matrices are formed in normal wound healing and are used by tumors to sustain growth, thus Z-chambers are designed to study, for example, angiogenesis, wound healing, and tumor growth. In addition, their design is useful, for example, in studies of localized gene expression, stem cell, adenoviral, and tissue generation.
The efficacy of 101 in an in vivo tumor model was examined by Z-chamber® (SRI, Menlo Park, Calif.) study. Each tumor chamber consisted of 150-160 μl cell suspension made by suspending 190 million cells in 20 ml fibrin (4 mg/ml). Following the introduction of cell suspension, 2 units of thrombin was added into each chamber and the mixture was allowed to gel for 5-7 minutes before implantation.
Rats were anesthetized with Nembutal (35 mg/kg). The skin of rats was surgically prepared with 70% alcohol. […]
101 was dissolved in a 1 to 1 cremophor:ethanol solution and diluted 4 times with 5% dextrose on water. […] The tumor thickness was measured and compared to a negative control, i.e., chambers with no treatment, and the positive treatment. […]

EC50 [1]	EC50 (Edg-5)	agonist activity at the Edg-7 receptor (Edg-7)	EC50 (Edg-7; agonist, calcium mobilization)	EC50 (Edg-3)	Fold Selectivity for Edg-4 (EC50) (human Edg-4 receptor [3])	calcium response (agonist) (human Edg-4 receptor [4]; HTC cells transfected with human Edg-4, FIG. 15)	EC50 (human Edg-4 receptor [4]; agonist, calcium mobilization)	EC50 (Edg-1)	EC50 (Edg-6)	EC50 (Edg-8)	EC50 (Edg-2)	SMILES	calcium response elicited by 125, inhibited by antagonist 103 [2]	inhibition of tumor growth (positive control) [5]
> 25 µM	> 25 µM	acts as an agonist	2.5 µM	> 25 µM	>4.8	elicits a calcium response	5.2 µM	> 25 µM	> 25 µM	> 25 µM	> 25 µM	COc1cc2c(cc1OC)C(c1c(Cl)cccc1Cl)NC(=O)C2 (centres unmarked) [Compound 125, 1-(2,6-dichlorophenyl)-6,7-dimethoxy-1,4-dihydro-2H-isoguinolin-3-one]	specificity is also observed	–
–	–	–	–	–	–	–	–	–	–	–	–	CC(=O)O[C@H]1C(=O)[C@@]2(C)[C@H]([C@H](OC(=O)c3ccccc3)[C@]3(O)C[C@H](OC(=O)[C@H](O)[C@@H](NC(=O)c4ccccc4)c4ccccc4)C(C)=C1C3(C)C)[C@]1(OC(C)=O)CO[C@@H]1C[C@@H]2O [Taxol]	–	inhibition of tumor growth
